The text below walks through data of patent publication US6814960B1, “Hydroxystilbene compounds used as microbicidal active substances” (Ciba Specialty Chemicals Corporation, priority 1998, dated 2004).

What all share (experiment): MIC value in microtitre plates (optical density)
Holding throughout (assay type): cell-based

Assay [1] relates to Aspergillus niger ATCC 6275. To be noted: microtitre plate, Sabouraud 2% glucose bouillon, 5 days at 28° C., optical density 620 nm, ≦20% growth; some data indicative values. As for the experimental part:
(§1) Determination of the Minimum Inhibiting Concentration (MIC Value) in Microtitre Plates
(§2) Casein/soybean flour peptone bouillon for the preparation of the precultures of the test bacteria and yeast.
(§3) Mycological slant agar for the preculture of moulds.
(§4) Examples of Test Organisms
(§5) The test substances are predissolved in dimethyl sulfoxide (DMSO) and tested in a serial dilution of 1:2.
(§6) Bacteria and yeast are cultured overnight in CASO bouillon, the mould on mycological slant agar and rinsed off with 10 ml of 0.85% sodium chloride solution (+0.1% TritonX-100).
(§7) All test organisms are adjusted to an organism count of 1.5×10^6 CFU/ml with 0.85% sodium chloride solution.
(§8) The test substances are prepipetted into microtitre plates in an amount of 8 μl per well.
(§9) Previously diluted organism substances are diluted 1:100 in CASO bouillon (bacteria and yeast) and Sabouraud 2% glucose bouillon (mould) and added to the test substances in an amount of 192 μl per well.
(§10) The test batches are incubated for 48 hours at 37° C. (bacteria and yeast) or for 5 days at 28° C. (mould).
(§11) After incubation, the growth is determined by reference to the turbidity of the test batches (optical density) at 620 nm in a microplate reader.
(§12) The minimum inhibiting concentration (MIC value) is the concentration of substance at which (compared with the growth control) an appreciable inhibition of the growth (≦20% growth) of the test organisms is ascertained.
(§13) One microtiter plate is used for each test organism and substance concentration. All substances tested in duplicate.

Assay [2] has as its system Escherichia coli NCTC 8196. To be noted: microtitre plate, CASO bouillon, 48 hours at 37° C., optical density 620 nm, ≦20% growth; some data indicative values. As for the experimental part:
as §1, §2, §3, §4, §5, §6, §7, §8, §9, §10, §11, §12, §13

The subject of assay [3] is Staphylococcus hominis DSM 20328. To be noted: microtitre plate, CASO bouillon, 48 hours at 37° C., optical density 620 nm, ≦20% growth; some data indicative values. As for the experimental part: as §1, §2, §3, §4, §5, §6, §7, §8, §9, §10, §11, §12, §13
For assay [4], the system named is Pseudomonas aeruginosa CIP A-22. To be noted: microtitre plate, CASO bouillon, 48 hours at 37° C., optical density 620 nm, ≦20% growth; some data indicative values. As for the experimental part: as §1, §2, §3, §4, §5, §6, §7, §8, §9, §10, §11, §12, §13
For assay [5], the system named is Candida albicans ATCC 10231. To be noted: microtitre plate, CASO bouillon, 48 hours at 37° C., optical density 620 nm, ≦20% growth; some data indicative values. As for the experimental part:
as §1, §2, §3, §4, §5, §6, §7, §8, §9, §10, §11, §12, §13

As to `Oc1ccccc1/C=C/c1ccc(Cl)cc1` [Comp. of formula 125], the “MIC values A. niger” value in assay [1] was determined as 60 ppm. Further, in assay [2], the “MIC values E. coli” value is 15 ppm. The “MIC values S. heminis” value in assay [3] is given as 60 ppm. The “MIC values P. aeruginosa” value in assay [4] came to 100 ppm. Also, in assay [5], the “MIC values C. albicans” value is reported as 60 ppm.
As for `COc1cc(/C=C/c2ccc(Cl)cc2)cc(O)c1OC` [Comp. of formula 126], the “MIC values A. niger” value in assay [1] is 100 ppm. The “MIC values E. coli” value in assay [2] is greater than 100 ppm. For the same molecule, in assay [3], the “MIC values S. heminis” value was greater than 100 ppm. Further, the “MIC values P. aeruginosa” value in assay [4] is recorded as greater than 100 ppm. For the same molecule, the “MIC values C. albicans” value in assay [5] is 100 ppm.
In the case of `Cc1cccc(/C=C/c2ccc(Cl)cc2)c1O` [Comp. of formula 128], in assay [1], the “MIC values A. niger” value amounted to 100 ppm. In assay [2], the “MIC values E. coli” value was greater than 100 ppm. Besides, the “MIC values S. heminis” value in assay [3] is listed as greater than 100 ppm. In addition, the “MIC values P. aeruginosa” value in assay [4] is greater than 100 ppm. The “MIC values C. albicans” value in assay [5] was greater than 100 ppm.
On to `COc1ccc(/C=C/c2ccc(O)cc2)cc1` [Comp. of formula 131], for which, in assay [1], the “MIC values A. niger” value is given as greater than 100 ppm. The “MIC values E. coli” value in assay [2] was greater than 100 ppm. The “MIC values S. heminis” value in assay [3] was greater than 100 ppm. Further, the “MIC values P. aeruginosa” value in assay [4] is recorded as greater than 100 ppm. Also, in assay [5], the “MIC values C. albicans” value was greater than 100 ppm.
For the molecule `COc1ccc(/C=C/c2cccc(O)c2)cc1` [Comp. of formula 132], the “MIC values A. niger” value in assay [1] was greater than 100 ppm. Moreover, the “MIC values E. coli” value in assay [2] was greater than 100 ppm. Also, in assay [3], the “MIC values S. heminis” value is recorded as greater than 100 ppm. The “MIC values P. aeruginosa” value in assay [4] was greater than 100 ppm. Also, in assay [5], the “MIC values C. albicans” value is listed as greater than 100 ppm.
On to `COc1ccc(/C=C/c2ccc(OC)c(O)c2)cc1` [Comp. of formula 133], for which, in assay [1], the “MIC values A. niger” value was greater than 100 ppm. Further, the “MIC values E. coli” value in assay [2] is listed as greater than 100 ppm. Further, the “MIC values S. heminis” value in assay [3] is given as greater than 100 ppm. Also, the “MIC values P. aeruginosa” value in assay [4] is recorded as greater than 100 ppm. Besides, in assay [5], the “MIC values C. albicans” value is greater than 100 ppm.
As to `CCOc1cc(/C=C/c2ccc(OC)cc2)ccc1O` [Comp. of formula 134], the “MIC values A. niger” value in assay [1] is on record as greater than 100 ppm. In addition, the “MIC values E. coli” value in assay [2] was greater than 100 ppm. Besides, in assay [3], the “MIC values S. heminis” value is greater than 100 ppm. Besides, the “MIC values P. aeruginosa” value in assay [4] was greater than 100 ppm. For the same molecule, in assay [5], the “MIC values C. albicans” value was greater than 100 ppm.
For `COc1ccc(/C=C/c2ccc(O)c(OC)c2)cc1` [Comp. of formula 135], the “MIC values A. niger” value in assay [1] is greater than 100 ppm. Moreover, the “MIC values E. coli” value in assay [2] is given as greater than 100 ppm. In addition, the “MIC values S. heminis” value in assay [3] was greater than 100 ppm. The “MIC values P. aeruginosa” value in assay [4] is recorded as greater than 100 ppm. Also, the “MIC values C. albicans” value in assay [5] is greater than 100 ppm.
Turning to `COc1ccc(/C=C/c2ccccc2O)cc1` [Comp. of formula 137], the “MIC values A. niger” value in assay [1] is reported as greater than 100 ppm. Also, the “MIC values E. coli” value in assay [2] stood at 100 ppm. In addition, the “MIC values S. heminis” value in assay [3] is greater than 100 ppm. Moreover, the “MIC values P. aeruginosa” value in assay [4] was greater than 100 ppm. For the same molecule, the “MIC values C. albicans” value in assay [5] is reported as greater than 100 ppm.
As for `COc1ccc(/C=C/c2cc(O)c(OC)c(OC)c2)cc1` [Comp. of formula 138], in assay [1], the “MIC values A. niger” value is reported as greater than 100 ppm. The “MIC values E. coli” value in assay [2] was greater than 100 ppm. The “MIC values S. heminis” value in assay [3] is greater than 100 ppm. For the same molecule, the “MIC values P. aeruginosa” value in assay [4] is reported as greater than 100 ppm. Further, the “MIC values C. albicans” value in assay [5] is greater than 100 ppm.
`COc1ccc(/C=C/c2cccc(C)c2O)cc1` [Comp. of formula 140]: the “MIC values A. niger” value in assay [1] was found to be 100 ppm. In addition, the “MIC values E. coli” value in assay [2] was greater than 100 ppm. In assay [3], the “MIC values S. heminis” value is recorded as greater than 100 ppm. Further, the “MIC values P. aeruginosa” value in assay [4] is given as greater than 100 ppm. For the same molecule, in assay [5], the “MIC values C. albicans” value is recorded as greater than 100 ppm.
On to `Oc1ccc(/C=C/c2ccc(-c3ccccc3)cc2)cc1` [Comp. of formula 143], for which the “MIC values A. niger” value in assay [1] is greater than 100 ppm. Moreover, in assay [2], the “MIC values E. coli” value was greater than 100 ppm. Further, the “MIC values S. heminis” value in assay [3] was greater than 100 ppm. Moreover, the “MIC values P. aeruginosa” value in assay [4] is given as greater than 100 ppm. In addition, the “MIC values C. albicans” value in assay [5] is listed as greater than 100 ppm.
